Measurements as given in patent publication US20220403339A1, “3D HUMAN LIVER ORGAN MODEL CONSTRUCTING METHOD, 3D HUMAN LIVER ORGAN MODEL AND USE THEREOF” (priority 2020, published 2022).

Assays:
[1] = system: human primary liver cells; settings: 100 μM drug; 3D model II-2 (human primary liver cells, 5000 cells per micropore) vs 2D comparison model II; FIG. 15
Description: (§1) 3. […] In a long-time administration test of the 3D human liver organ model, 100 μM is administered once, and if repeated administration is required, a drug is changed in the middle and the concentration is maintained. Each 3D human liver organ model and each 2D liver organ model need to be provided with a blank group, a negative control group and a positive control group, and each group is provided with six replicate wells.
(§2) 4. […] After drug incubation is completed, the culture medium with the drugs is removed, 100 μL of a mixed solution of a cell titer blue stock solution and a complete culture medium in a ratio of 1:5 is added, incubation is conducted for 3 h at 37° C., and a detection wavelength is […]. For example, the Cell titer 3D glo is added to evaluate the ATP of the 3D liver model, so that the action effect of the drugs is evaluated. After drug incubation is completed, the culture medium with the drugs is removed, 100 μL of a mixed solution of a Cell titer 3D glo stock solution and a complete culture medium in a ratio of 1:1 is added, incubation is conducted for 0.5 h at normal temperature, and detection is conducted in a Luminescence mode. For example, a high-content imaging technology is used for imaging characterization of the number of living and dead cells, and characterization of cell mitochondrial activity and membrane potential to evaluate hepatotoxicity drugs. The embodiment is applicable to, but not limited to, the above characterization method.

[2] = system: human liver cancer cell lines hepG2; assay type: cell-based; settings: 100 μM drug; 3D model I-1 (hepG2, 2000 cells per micropore) vs 2D comparison model I; FIG. 8
Description: as §1, §2

[3] = clinical classification; cited from earlier work

Row | SMILES | hepatotoxicity inhibition on the 3D liver organ model compared with the 2D liver organ comparison model [1] | hepatotoxicity inhibition on the 3D liver organ model compared with the 2D liver organ comparison model [2] | clinically confirmed hepatotoxicity class [3]
1 | CC(=O)Nc1ccc(O)cc1 [compound 15, paracetamol] | stronger hepatotoxicity inhibition |  | 
2 | COc1ccccc1Oc1c(NS(=O)(=O)c2ccc(C(C)(C)C)cc2)nc(-c2ncccn2)nc1OCCO [compound 5, bosentan] | stronger hepatotoxicity inhibition | stronger hepatotoxicity inhibition | low-hepatotoxicity
3 | CN(CCOc1ccc(CC2SC(=O)NC2=O)cc1)c1ccccn1 (stereo not drawn) [compound 6, rosiglitazone] | stronger hepatotoxicity inhibition | stronger hepatotoxicity inhibition | low-hepatotoxicity
4 | O=C(OCC(O)CO)c1ccccc1Nc1ccnc2cc(Cl)ccc12 (stereo not drawn) [compound 10, glafenine] | stronger hepatotoxicity inhibition |  | low-hepatotoxicity
5 | CN(C)CCC=C1c2ccccc2CCc2ccccc21 [compound 12, amitriptyline] |  | stronger hepatotoxicity inhibition | low-hepatotoxicity
6 | CN(C)[C@@H]1C(=O)C(C(N)=O)=C(O)[C@@]2(O)C(=O)C3=C(O)c4c(O)cccc4[C@@](C)(O)[C@H]3C[C@@H]12 [compound 9, tetracycline] | stronger hepatotoxicity inhibition |  | low-hepatotoxicity
7 | Cc1ccc(-c2cc(C(F)(F)F)nn2-c2ccc(S(N)(=O)=O)cc2)cc1 [compound 8, celecoxib] |  | stronger hepatotoxicity inhibition | low-hepatotoxicity
